Assay results as given in PubChem BioAssay (NCI).
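Following 48 hours of exposure in 96-well plates, responses at five concentrations were used to interpolate endpoints linearly. TGI denotes the concentration required for complete inhibition of growth.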

How the values were obtained:
Assay in all cases: growth of human tumour cells (NCI), 48 h
786-0 renal = tested on: 786-0 renal
A498 renal = tested on: A498 renal
A549 NSCLC = tested on: A549 NSCLC
ACHN renal = tested on: ACHN renal
BT-549 breast = tested on: BT-549 breast
CAKI-1 renal = tested on: CAKI-1 renal
CCRF-CEM leukemia = tested on: CCRF-CEM leukemia
COLO 205 colon = tested on: COLO 205 colon
DU-145 prostate = tested on: DU-145 prostate
EKVX NSCLC = tested on: EKVX NSCLC
HCC-2998 colon = tested on: HCC-2998 colon
HCT-116 colon = tested on: HCT-116 colon
HCT-15 colon = tested on: HCT-15 colon
HL-60(TB) leukemia = tested on: HL-60(TB) leukemia
HOP-62 NSCLC = tested on: HOP-62 NSCLC
HOP-92 NSCLC = tested on: HOP-92 NSCLC
HS 578T breast = tested on: HS 578T breast
HT29 colon = tested on: HT29 colon
IGROV1 ovarian = tested on: IGROV1 ovarian
K-562 leukemia = tested on: K-562 leukemia
KM12 colon = tested on: KM12 colon
LOX IMVI melanoma = tested on: LOX IMVI melanoma
M14 melanoma = tested on: M14 melanoma
MALME-3M melanoma = tested on: MALME-3M melanoma
MCF7 breast = tested on: MCF7 breast
MDA-MB-231 breast = tested on: MDA-MB-231 breast
MDA-MB-435 = tested on: MDA-MB-435
MDA-N = tested on: MDA-N
MOLT-4 leukemia = tested on: MOLT-4 leukemia
NCI-H226 lung = tested on: NCI-H226 lung
NCI-H23 lung = tested on: NCI-H23 lung
NCI-H460 lung = tested on: NCI-H460 lung
NCI-H522 lung = tested on: NCI-H522 lung
NCI/ADR-RES ovarian = tested on: NCI/ADR-RES ovarian
OVCAR-3 ovarian = tested on: OVCAR-3 ovarian
OVCAR-4 ovarian = tested on: OVCAR-4 ovarian
OVCAR-5 ovarian = tested on: OVCAR-5 ovarian
OVCAR-8 ovarian = tested on: OVCAR-8 ovarian
PC-3 prostate = tested on: PC-3 prostate
RPMI-8226 leukemia = tested on: RPMI-8226 leukemia
RXF 393 renal = tested on: RXF 393 renal
SF-268 CNS = tested on: SF-268 CNS
SF-295 CNS = tested on: SF-295 CNS
SF-539 CNS = tested on: SF-539 CNS
SK-MEL-2 melanoma = tested on: SK-MEL-2 melanoma
SK-MEL-28 melanoma = tested on: SK-MEL-28 melanoma
SK-MEL-5 melanoma = tested on: SK-MEL-5 melanoma
SK-OV-3 ovarian = tested on: SK-OV-3 ovarian
SN12C renal = tested on: SN12C renal
SNB-19 CNS = tested on: SNB-19 CNS
SNB-75 CNS = tested on: SNB-75 CNS
SW-620 colon = tested on: SW-620 colon
T-47D breast = tested on: T-47D breast
TK-10 renal = tested on: TK-10 renal
U251 CNS = tested on: U251 CNS
UACC-257 melanoma = tested on: UACC-257 melanoma
UACC-62 melanoma = tested on: UACC-62 melanoma
UO-31 renal = tested on: UO-31 renal
SR leukemia = tested on: SR leukemia

CC(=O)C1=C(C)N2C(=NC3=C(CCc4ccccc43)C2c2ccc(Cl)cc2)S1 (stereo not drawn)
TGI (786-0 renal): > 100 µM | TGI (A498 renal): 51 µM | TGI (A549 NSCLC): > 100 µM | TGI (ACHN renal): > 100 µM | TGI (BT-549 breast): > 100 µM | TGI (CAKI-1 renal): > 100 µM | TGI (CCRF-CEM leukemia): > 96.6 µM | TGI (COLO 205 colon): > 100 µM | TGI (DU-145 prostate): > 100 µM | TGI (EKVX NSCLC): > 100 µM | TGI (HCC-2998 colon): > 100 µM | TGI (HCT-116 colon): > 100 µM | TGI (HCT-15 colon): > 100 µM | TGI (HL-60(TB) leukemia): 10.9 µM | TGI (HOP-62 NSCLC): > 100 µM | TGI (HOP-92 NSCLC): > 100 µM | TGI (HS 578T breast): > 100 µM | TGI (HT29 colon): > 100 µM | TGI (IGROV1 ovarian): > 100 µM | TGI (K-562 leukemia): > 56.2 µM | TGI (KM12 colon): > 100 µM | TGI (LOX IMVI melanoma): > 100 µM | TGI (M14 melanoma): > 100 µM | TGI (MALME-3M melanoma): > 100 µM | TGI (MCF7 breast): > 100 µM | TGI (MDA-MB-231 breast): > 100 µM | TGI (MDA-MB-435): > 100 µM | TGI (MDA-N): > 100 µM | TGI (MOLT-4 leukemia): 55.3 µM | TGI (NCI-H226 lung): > 100 µM | TGI (NCI-H23 lung): > 100 µM | TGI (NCI-H460 lung): > 100 µM | TGI (NCI-H522 lung): 82.7 µM | TGI (NCI/ADR-RES ovarian): > 100 µM | TGI (OVCAR-3 ovarian): > 100 µM | TGI (OVCAR-4 ovarian): > 100 µM | TGI (OVCAR-5 ovarian): > 100 µM | TGI (OVCAR-8 ovarian): > 100 µM | TGI (PC-3 prostate): > 100 µM | TGI (RPMI-8226 leukemia): 12.8 µM | TGI (RXF 393 renal): > 100 µM | TGI (SF-268 CNS): > 100 µM | TGI (SF-295 CNS): > 100 µM | TGI (SF-539 CNS): > 100 µM | TGI (SK-MEL-2 melanoma): > 100 µM | TGI (SK-MEL-28 melanoma): > 100 µM | TGI (SK-MEL-5 melanoma): > 100 µM | TGI (SK-OV-3 ovarian): > 100 µM | TGI (SN12C renal): > 100 µM | TGI (SNB-19 CNS): > 100 µM | TGI (SNB-75 CNS): > 100 µM | TGI (SW-620 colon): > 100 µM | TGI (T-47D breast): > 100 µM | TGI (TK-10 renal): > 100 µM | TGI (U251 CNS): > 100 µM | TGI (UACC-257 melanoma): > 100 µM | TGI (UACC-62 melanoma): > 100 µM | TGI (UO-31 renal): > 100 µM

FC(F)(F)c1ccc2c(c1)nc(Cc1ccc(Cl)cc1)n2CC1CCCN2CCCCC12 (stereo not drawn)
TGI (786-0 renal): 20.7 µM | TGI (A498 renal): 27.1 µM | TGI (A549 NSCLC): 25.1 µM | TGI (ACHN renal): 23.6 µM | TGI (BT-549 breast): 23.7 µM | TGI (CAKI-1 renal): 30.4 µM | TGI (COLO 205 colon): 16 µM | TGI (DU-145 prostate): 21.6 µM | TGI (EKVX NSCLC): 23.2 µM | TGI (HCC-2998 colon): 10.5 µM | TGI (HCT-116 colon): 19.9 µM | TGI (HCT-15 colon): 20.9 µM | TGI (HL-60(TB) leukemia): 6.13 µM | TGI (HOP-62 NSCLC): 27.7 µM | TGI (HOP-92 NSCLC): 20.4 µM | TGI (HS 578T breast): 6.9 µM | TGI (HT29 colon): 11.6 µM | TGI (IGROV1 ovarian): 22 µM | TGI (K-562 leukemia): 19.4 µM | TGI (KM12 colon): 21.4 µM | TGI (LOX IMVI melanoma): 7.85 µM | TGI (M14 melanoma): 4.91 µM | TGI (MALME-3M melanoma): 3.8 µM | TGI (MCF7 breast): 21.8 µM | TGI (MDA-MB-231 breast): 13.1 µM | TGI (MDA-MB-435): 24.4 µM | TGI (MDA-N): 13.7 µM | TGI (MOLT-4 leukemia): 10.4 µM | TGI (NCI-H226 lung): 24.2 µM | TGI (NCI-H460 lung): 20.7 µM | TGI (NCI-H522 lung): 16.9 µM | TGI (NCI/ADR-RES ovarian): 20.8 µM | TGI (OVCAR-3 ovarian): 15.2 µM | TGI (OVCAR-4 ovarian): 36.1 µM | TGI (OVCAR-5 ovarian): 25 µM | TGI (OVCAR-8 ovarian): 23.4 µM | TGI (PC-3 prostate): 20.9 µM | TGI (RXF 393 renal): 22 µM | TGI (SF-268 CNS): 18 µM | TGI (SF-295 CNS): 22.3 µM | TGI (SK-MEL-2 melanoma): 26.4 µM | TGI (SK-MEL-28 melanoma): 6.38 µM | TGI (SK-MEL-5 melanoma): 15.2 µM | TGI (SK-OV-3 ovarian): 24.1 µM | TGI (SN12C renal): 21.4 µM | TGI (SNB-19 CNS): 26.9 µM | TGI (SNB-75 CNS): 14 µM | TGI (SR leukemia): 7.13 µM | TGI (SW-620 colon): 27.4 µM | TGI (T-47D breast): 19.6 µM | TGI (TK-10 renal): 24.7 µM | TGI (U251 CNS): 20.5 µM | TGI (UACC-257 melanoma): 8.41 µM | TGI (UACC-62 melanoma): 10.1 µM | TGI (UO-31 renal): 0.0985 µM
